Laboratory results taken from patent publication US20070010556A1, “Thiophene derivatives as chk 1 inhibitors” (ASTRAZENECA AB, priority 2004, published 2007).

Target: T1, CHK1 kinase (Homo sapiens, UniProt O14757)
T1 construct: The kinase domain is expressed in baculovirus and purified by the GST tag; GST; made in house
T1 sequence (O14757 9-265 limits assumed): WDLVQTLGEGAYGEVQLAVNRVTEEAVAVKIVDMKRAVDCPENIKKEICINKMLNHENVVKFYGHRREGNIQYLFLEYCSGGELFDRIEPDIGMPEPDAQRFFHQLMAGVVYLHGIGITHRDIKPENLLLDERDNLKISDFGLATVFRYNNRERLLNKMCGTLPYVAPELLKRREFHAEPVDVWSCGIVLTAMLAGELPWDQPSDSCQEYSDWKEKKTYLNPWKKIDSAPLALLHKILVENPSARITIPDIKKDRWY
Assay: Checkpoint Kinase 1 Assay (Scintillation Proximity Assay)
Format: biochemical
Protocol: Checkpoint Kinase 1 Assay: This in vitro assay measures the inhibition of CHK1 kinase by compounds. The kinase domain is expressed in baculovirus and purified by the GST tag. Purified protein and biotinylated peptide substrate (Cdc25C) is then used in a 384 well automated Scintillation Proximity Assay (SPA). Specifically, peptide, enzyme and reaction buffer are mixed and aliquoted into a 384 well plate containing dilution series of compounds and controls. Cold and hot ATP are then added to initiate the reaction. After 2 hours, a SPA bead slurry, […] and EDTA are added to stop the reaction and capture the biotinylated peptide. Plates are then counted on a Topcount. Data is analyzed and IC50s determined for individual compounds.

IC50	Compound
0.14 nM	COc1ccc(F)cc1-c1cc(C(=O)N[C@H]2CCCCNC2)c(NC(N)=O)s1 [Example 97]
0.12 nM	O=C(Nc1cnccn1)Nc1cc(-c2ccc(Cl)cc2)sc1C(=O)N[C@H]1CCCNC1 [Example 263, 5-(4-Chloro-phenyl)-3-(3-pyrazin-2-yl-ureido)-thiophene-2-carboxylic acid (S)-piperidin-3-ylamide]
